Data published in patent publication US11639483B2, “Macrocyclic musk lactones and uses thereof” (PHYTO TECH CORP., priority 2021, dated 2023).

Tests used:
[1] = Fiber substantivity: odor strength on fabric treated with softener, 14 member-panel; parameters: species or system human; conditions: 70% in isopropyl myristate dosed 0.25% w/w in softener; line dried 20 hours; 9 (very good) to 0 (very poor)
Method: Additionally, substantivity is evaluated olfactively by a panel after treating samples of substrate with a perfumed product, such as a fabric softener for cotton fabric or a shampoo for hair, containing the lactones described herein or other musk fragrances for comparison, according to standard procedures described below. Thus, the evaluation is essentially a relative odor intensity measurement. It is known that the perceived odor intensity of mixtures of perfume ingredients when evaluated as such is generally less than the sum of the perceived odors of the components. Thus, the perceived odor intensity of a 1:1 mixture of 2 of the components of the lactones described herein would be expected to be lower than the sum of the intensities of the separate components, i.e. in such mixtures odor suppression is generally found. On the contrary, the perceived odor intensity on substrate treated with the lactones described herein is at least equal to, but in most cases greater than the perceived intensity of substrate treated with equal amounts of the separate components.
Comparison of the fiber substantivity of single polycyclic musks and macrocyclic musks with musk mixtures is described herein. 70% Solutions in isopropyl myristate of the musks and musk mixtures to be tested are dosed at 0.25% w/w in a single Arquad fabric softener (GT 117B). The test is carried out by rinsing “6″×6” (weight: 16 g) cotton terry towel pieces at ambient temperature in a tergotometer according to the procedure below: • 3 g of fabric softener containing the test musk is added to 1 liter of water and agitated for one minute to disperse. The fabric piece is added and washed for 10 minutes with constant agitation at 100 rpm. On completion of the wash cycle, the pieces are hand wringed and line dried for 20 hours. • The cloths are assessed olfactively by a 14 member-panel. A 10-point scale is used running from 9 (very good) to 0 (very poor).

[2] = Odor strength on blotter; parameters: species or system human
Source text: The results are presented below in Table 23a and Table 23b:

[3] = In use comparison of musk lactone mixture A with commercial musks in unperfumed laundry detergent, expert panel; parameters: species or system human; conditions: for DAMP HED / DAMP STR: damp towel; for DAMP HED / DRY TWL 1 DAY HED / DRY TWL 7 DAYS HED / DRY TWL 15 DAYS HED / JAR HED: hedonic; for DAMP STR / DRY TWL 1 DAY STR / DRY TWL 7 DAYS STR / DRY TWL 15 DAYS STR / JAR STR: strength; for DRY TWL 1 DAY HED / DRY TWL 1 DAY STR: dry towel 1 day; for DRY TWL 7 DAYS HED / DRY TWL 7 DAYS STR: dry towel 7 days; for DRY TWL 15 DAYS HED / DRY TWL 15 DAYS STR: dry towel 15 days; for JAR STR: jar (point of purchase)
Method: Olfactive evaluations in use were performed by an expert panel. The range of materials evaluated was comprehensive, including musk products commercially available: Nitromusk, Polycyclic and Macrocyclic categories (Ambrettolide, Dihydro Ambrettolide, Scentolide, Muscone, Muscenone, Velvione, Musk Ambrette, Edenolide, Ethylene Brassylate, Galaxolide, Tonalide, Habanolide, Globanone, Macrolide, Oxalide T and others).
Evaluation samples were prepared using unperfumed laundry detergent (formulation example in Example 4, Table 10) at two different dosages: 10% Solution @ 0.8% (yielding 0.08% musk lactone mixture A) or 1.5% (yielding 0.15% musk lactone mixture A) driven by relative product performance in formulas and practical laboratory practices to execute the comparisons. The concentration of musk lactone mixture A in each evaluation was at the same concentration as the commercial musk.
The evaluations were performed in use stages: Jar (POP—Point of purchase), damp towel, Dry towel (1 day) and Storage Dry towel (7 days and 15 days). A five points scale was utilized, rating both strength and hedonic character: • Strength (STR) is rated as the overall scent power coming up from the substrate, due to physicochemical properties and commonly described as a combination of diffusion, bloom, body and or volume perceptions.

[4] = Appearance (solubility) of shampoo with musk, increased load; assay type: physicochemical
[5] = Appearance of musk in laundry detergent base; assay type: physicochemical
Method: Furthermore, musk lactone mixture A and other musks were also evaluated at two different loadings in laundry detergent base, as shown in Tables 38 and 39.

[6] = 0.04% Musk in laundry detergent base
[7] = 0.08% Musk in laundry detergent base

| Appearance [5, 6] | Appearance [5, 7] | Compound | DAMP HED ([3]; 10% IPM @0.8%) | DAMP STR ([3]; 10% IPM @0.8%) | DRY TWL 1 DAY HED ([3]; 10% IPM @0.8%) | DRY TWL 1 DAY STR ([3]; 10% IPM @0.8%) | DRY TWL 7 DAYS HED ([3]; 10% IPM @0.8%) | DRY TWL 7 DAYS STR ([3]; 10% IPM @0.8%) | DRY TWL 15 DAYS HED ([3]; 10% IPM @0.8%) | DRY TWL 15 DAYS STR ([3]; 10% IPM @0.8%) | JAR STR ([3]; 10% IPM @0.8%) | JAR HED ([3]; 10% IPM @0.8%) | further results |
| --- | --- | --- | --- | --- | --- | --- | --- | --- | --- | --- | --- | --- | --- |
|  |  | O=C1CCCCCCCCCCCCCCCO1 [Hexadecanolide] |  |  |  |  |  |  |  |  |  |  | ODOR STRENGTH ON FABRIC TREATED WITH SOFTENER, Rating (10-point scale) [1]: 4.8; ODOR STRENGTH ON BLOTTER, Rating (10-point scale) [2]: 5.8 |
| Very cloudy | Phase separation | O=C1CCCCC/C=C\CCCCCCCCO1 [Ambrettolide] | + ((+) directionally superior) | −− ((−−) Significantly inferior) | −/− ((−) directionally inferior) | −/− ((−) directionally inferior) | −/− ((−) directionally inferior) | −/− ((−) directionally inferior) | −/− ((−) directionally inferior) | −/− ((−) directionally inferior) | −− ((−−) Significantly inferior) | − ((−) directionally inferior) | appearance of shampoo formula ([4]; 0.3% musk with 0.2% fruity floral fragrance oil): cloudy; appearance of shampoo formula ([4]; lower level of ambrettolide (0.2%)): remaining clear |
|  |  | COc1c(C(C)(C)C)cc([N+](=O)[O-])c(C)c1[N+](=O)[O-] [musk ambrette] | − ((−) directionally inferior) | ++ | 0 (comparable) | + ((+) directionally superior) | 0 (comparable) | + ((+) directionally superior) | 0 (comparable) | + ((+) directionally superior) | ++ | − ((−) directionally inferior) |  |
|  |  | C[C@@H]1CCCCCCCCCCCCC(=O)C1 [MUSCONE, Muscone] | + ((+) directionally superior) | ++ | ++ | + ((+) directionally superior) | ++ | + ((+) directionally superior) | ++ | + ((+) directionally superior) | ++/++ | ++/++ |  |
| Very cloudy | Phase separation | CC1COCc2cc3c(cc21)C(C)(C)C(C)C3(C)C (stereo not drawn) [Galaxolide, galaxolide] |  |  |  |  |  |  |  |  |  |  | ODOR STRENGTH ON FABRIC TREATED WITH SOFTENER, Rating (10-point scale) [1]: 3.8; DAMP HED ([3]; 10% IPM @1.5%): −−/−− ((−−) Significantly inferior); DAMP STR ([3]; 10% IPM @1.5%): −−/−− ((−−) Significantly inferior); DRY TWL 1 DAY HED ([3]; 10% IPM @1.5%): −−/−− ((−−) Significantly inferior); DRY TWL 1 DAY STR ([3]; 10% IPM @1.5%): −−/−− ((−−) Significantly inferior); DRY TWL 7 DAYS HED ([3]; 10% IPM @1.5%): −−/−− ((−−) Significantly inferior); DRY TWL 7 DAYS STR ([3]; 10% IPM @1.5%): −−/−− ((−−) Significantly inferior); DRY TWL 15 DAYS HED ([3]; 10% IPM @1.5%): −−/−− ((−−) Significantly inferior); DRY TWL 15 DAYS STR ([3]; 10% IPM @1.5%): −−/−− ((−−) Significantly inferior); JAR STR ([3]; 10% IPM @1.5%): −−/−− ((−−) Significantly inferior); JAR HED ([3]; 10% IPM @1.5%): −−/−− ((−−) Significantly inferior); ODOR STRENGTH ON BLOTTER, Rating (10-point scale) [2]: 5.8 |
| Very cloudy | Phase separation | O=C1CCC/C=C\CCCCCCCCCC1 [velvione] | +/+ ((+) directionally superior) | +/+ ((+) directionally superior) | ++/++ | ++/++ | ++/++ | ++/++ | ++/++ | ++/++ | + ((+) directionally superior) | 0 (comparable) |  |
| Very cloudy | Phase separation | O=C1CCCCCCCCCCCCCCCO1 [dihydroambrettolide] | + ((+) directionally superior) | 0 ((0) comparable) | + ((+) directionally superior) | 0 ((0) comparable) | + ((+) directionally superior) | 0 ((0) comparable) | + ((+) directionally superior) | 0 ((0) comparable) | 0 ((0) comparable) | − ((−) directionally inferior) |  |
|  |  | Scentolide | 0 / 0 (comparable) | 0 / 0 ((0) comparable) | −/− ((−) directionally inferior) | −/− ((−) directionally inferior) | −/− ((−) directionally inferior) | −/− ((−) directionally inferior) | −/− ((−) directionally inferior) | −/− ((−) directionally inferior) | 0/0 ((0) comparable) | 0/0 (comparable) |  |
|  |  | CC(=O)c1cc2c(cc1C)C(C)(C)C(C)CC2(C)C (stereo not drawn) [Tonalid, tonalid] |  |  |  |  |  |  |  |  |  |  | ODOR STRENGTH ON FABRIC TREATED WITH SOFTENER, Rating (10-point scale) [1]: 7.2; ODOR STRENGTH ON BLOTTER, Rating (10-point scale) [2]: 8.2 |
|  |  | Edenolide | −/− ((−) directionally inferior) | −/− ((−) directionally inferior) | 0/0 (comparable) | 0/0 ((0) comparable) | 0/0 (comparable) | 0/0 ((0) comparable) | 0/0 (comparable) | 0/0 ((0) comparable) | 0/0 ((0) comparable) | 0/0 (comparable) |  |
| Very cloudy | Phase separation | CC1CCCCCCCCCCCCC(=O)C1 (stereo not drawn) [l-muscone, muscone laevo] |  |  |  |  |  |  |  |  |  |  |  |
|  |  | O=C1CCCCCCCCOCCCCCCO1 [OXALIDE T, Oxalide T] | 0/0 (comparable) | 0/0 ((0) comparable) | 0/0 (comparable) | 0/0 ((0) comparable) | 0/0 (comparable) | 0/0 ((0) comparable) | 0/0 (comparable) | 0/0 ((0) comparable) | 0 ((0) comparable) | − ((−) directionally inferior) |  |
|  |  | CC1CC=CCCCCCCCCCC(=O)C1 (stereo not drawn) [MUSCENONE, muscenone] | ++ | + ((+) directionally superior) | ++/++ | ++/++ | ++/++ | ++/++ | ++/++ | ++/++ | + ((+) directionally superior) | ++ |  |
| Very cloudy | Phase separation | O=C1CCCCCCCCCCCC(=O)OCCO1 [Ethylene Brassylate, ethylene brassilate] |  |  |  |  |  |  |  |  |  |  | DAMP HED ([3]; 10% IPM @1.5%): −− /−− ((−−) Significantly inferior); DAMP STR ([3]; 10% IPM @1.5%): −− /−− ((−−) Significantly inferior); DRY TWL 1 DAY HED ([3]; 10% IPM @1.5%): −−/−− ((−−) Significantly inferior); DRY TWL 1 DAY STR ([3]; 10% IPM @1.5%): −−/−− ((−−) Significantly inferior); DRY TWL 7 DAYS HED ([3]; 10% IPM @1.5%): −−/−− ((−−) Significantly inferior); DRY TWL 7 DAYS STR ([3]; 10% IPM @1.5%): −−/−− ((−−) Significantly inferior); DRY TWL 15 DAYS HED ([3]; 10% IPM @1.5%): −−/−− ((−−) Significantly inferior); DRY TWL 15 DAYS STR ([3]; 10% IPM @1.5%): −−/−− ((−−) Significantly inferior); JAR STR ([3]; 10% IPM @1.5%): −−/−− ((−−) Significantly inferior); JAR HED ([3]; 10% IPM @1.5%): −−/−− ((−−) Significantly inferior) |

| Compound | Appearance [5, 6] | Appearance [5, 7] | DAMP HED ([3]; 10% IPM @0.8%) | DAMP STR ([3]; 10% IPM @0.8%) | DRY TWL 1 DAY HED ([3]; 10% IPM @0.8%) | DRY TWL 1 DAY STR ([3]; 10% IPM @0.8%) | DRY TWL 7 DAYS HED ([3]; 10% IPM @0.8%) | DRY TWL 7 DAYS STR ([3]; 10% IPM @0.8%) | DRY TWL 15 DAYS HED ([3]; 10% IPM @0.8%) | DRY TWL 15 DAYS STR ([3]; 10% IPM @0.8%) | JAR STR ([3]; 10% IPM @0.8%) | JAR HED ([3]; 10% IPM @0.8%) | further results |
| --- | --- | --- | --- | --- | --- | --- | --- | --- | --- | --- | --- | --- | --- |
| CC(=O)c1cc2c(cc1C)C(C)(C)C(C)CC2(C)C (stereo not drawn) [tonalide/fixolide] | Very cloudy | Phase separation |  |  |  |  |  |  |  |  |  |  |  |
